The values below come from patent US11834435B2, “SSTR4 agonist salts” (Eli Lilly and Company, priority 2021, dated 2023).

Experiment [1] deals with T1, hSSTR4 (Homo sapiens (Human), UniProt P31391). Description: cAMP assay (inhibition of forskolin-stimulated cAMP) in hSSTR4 expressing H4 cells. The experiment is classed as cell-based. As to conditions: after being dissolved to free base forms. How it is done:
The activation of the SSTR4 receptor (G coupled) causes an inhibition of intracellular cAMP after stimulation with Forskolin, which can be quantifiable by use of a suitable assay Kit and an adequate plate reader. This technique is used to characterize pharmacological effects of the SSTR4 receptor agonists by use of hSSTR4 expressing H4 cells. The compound is dissolved and diluted in DMSO. The final test solution contains 1% DMSO. The cAMP standard (Lance™ cAMP 384 Kit; PerkinElmer, Cat #AD0264) is prepared in assay buffer (HBSS with 0.1% BSA, 5 mM HEPES, […], pH 7.4) containing 1% DMSO and the cAMP standard curve is included at least on one plate. Cells are centrifuged and suspended in assay buffer (incl. 1:100 diluted Alexa Fluor® antibody). For the assay 5 μL of a cell suspension (approximately 5000 cells/well)-incl. Alexa Fluor® antibody (diluted 1:100) are added into a 384 well MTP microtiter plate excepting one row or column (depending on the plate layout), which is reserved for the standard curve. Then 2 μL of compound sample is added as concentration response curve (e.g., le-5 M to 6e-10 M), usually in triplicates. Each assay contains incubations with vehicle controls instead of compound as controls for non-inhibited cAMP generation (100% CTL; ‘high values’) and incubations with 1 μM Somatostatin as controls for full inhibition and background (0% CTL; ‘low values’). After approximately 10-15 min incubation time 3 μL Forskolin (dissolved in DMSO, final conc. 15 μM) is added. Then the plates are shaken briefly and incubated for 60 min at RT. After 60 min 10 μL of the detection mix is added into all wells followed by an additional incubation period of 1 h. The plates are read in a suitable plate reader. The analysis of the data is based on the “ratio” of the time-resolved fluorescence measurements of donor and acceptor fluorophore (Ex: 320 nm; Em1: 665 nm; Em2: 615 nm; ratio 665/615). From this ratio, cAMP concentrations are calculated from standard curve and the EC50 is estimated by least square curve fit program. […]
Background: Cyclic AMP is a second messenger, typically raised through Gs and lowered through Gi signalling.

Experiment [2] has as its target T1, hSSTR4. Description: Radioligand competition binding, membrane homogenate. As to conditions: after being dissolved to free base forms. How it is done: In competition experiments, the test compound, which is not labeled, competes with the binding site of a labeled ligand. The displacement of the labeled ligand by the test compound leads to a decreased signal. For the binding experiments 200 μL of membrane homogenate from one of the following protein amounts is used: hSSTR1 (40 μg/well); hSSTR2 (25 μg/well); hSSTR3 (1.5 μg/well); hSSTR4 (0.5 μg/well); hSSTR5 (25 μg/well). The homogenate is incubated with 0.05 nM of radioligand ([3-125I-Tyr]-Somatostatin-(1-14)) in addition to increasing concentrations of a test compound or vehicle (100% binding) in a total volume of 250 μL using a Hepes buffer (10 mM, EDTA 1 mM, MgCl2 5 mM, pH 7.6, BSA 0.5%, Bacitracin 0.003%, DMSO 1%) for 180 min at RT. The incubation is terminated by filtration with ice cold NaCl 0.9% through polyethyleneimine treated (0.3%) grade GF/B glass fiber filters using a cell harvester. The protein-bound radioactivity is measured in a suitable reader. The non-specific binding is defined as radioactivity bound in the presence of 1 μM Somatostatin-14 during the incubation period. The analysis of the concentration-binding curves is performed by computer-assisted nonlinear least square curve fitting method using the model of one receptor binding site.
In general terms: Loss of bound radioactivity is the signal in a displacement assay; it reports binding, not function.

T1 sequence (P31391 whole entry): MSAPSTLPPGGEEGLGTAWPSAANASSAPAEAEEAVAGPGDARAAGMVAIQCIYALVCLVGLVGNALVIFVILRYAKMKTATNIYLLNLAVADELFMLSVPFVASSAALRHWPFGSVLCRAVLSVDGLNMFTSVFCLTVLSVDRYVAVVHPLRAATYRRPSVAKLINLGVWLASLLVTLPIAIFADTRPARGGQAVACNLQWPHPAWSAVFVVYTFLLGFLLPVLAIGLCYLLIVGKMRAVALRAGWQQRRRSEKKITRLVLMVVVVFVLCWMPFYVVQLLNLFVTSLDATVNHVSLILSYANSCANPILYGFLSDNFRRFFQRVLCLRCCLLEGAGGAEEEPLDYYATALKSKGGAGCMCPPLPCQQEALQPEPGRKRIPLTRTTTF

On to `Cc1cccnc1OCC(C)(C)NC(=O)[C@H]1[C@@H]2CNC[C@@H]21.O=C(O)C(O)C(O)C(=O)O` [Example 1, (1S,5R)-(1α,5α,6α)-N-[1,1-dimethyl-2-[(3-methyl-2-pyridyl)oxy]ethyl]-3-azabicyclo[3.1.0]hexane-6-carboxamide L-tartrate sesquihydrate], for which the “SSTR4 agonism (in words)” value in experiment [1] is recorded as “agonists of SSTR4”. The “Selectivity of binding to SSTR4 over SSTR1, SSTR2, SSTR3 and SSTR5 (in words)” value (“Selectivity of binding to SSTR4” below) in experiment [2] was “selectively bind to SSTR4”.
Regarding `Cc1cccnc1OCC(C)(C)NC(=O)[C@H]1[C@@H]2CNC[C@@H]21.O=C(O)CC(O)(CC(=O)O)C(=O)O` [Example 2, (1S,5R)-(1α,5α,6α)-N-[1,1-dimethyl-2-[(3-methyl-2-pyridyl)oxy]ethyl]-3-azabicyclo[3.1.0]hexane-6-carboxamide citrate], the “SSTR4 agonism (in words)” value in experiment [1] is recorded as “agonists of SSTR4”. For the same molecule, in experiment [2], the “Selectivity of binding to SSTR4” value is “selectively bind to SSTR4”.
In the case of `Cc1cccnc1OCC(C)(C)NC(=O)[C@H]1[C@@H]2CNC[C@@H]21.O=C(O)C[C@H](O)C(=O)O` [Example 3, (1S,5R)-(1α,5α,6α)-N-[1,1-dimethyl-2-[(3-methyl-2-pyridyl)oxy]ethyl]-3-azabicyclo[3.1.0]hexane-6-carboxamide L-malate], the “SSTR4 agonism (in words)” value in experiment [1] was “agonists of SSTR4”. The “Selectivity of binding to SSTR4” value in experiment [2] is “selectively bind to SSTR4”.
